The test system of one data set is Vero cells. The experiment in a line: Cytotoxicity test with MTT method in Vero cells. Conditions: 5 days. The data set is classed as cell-based, African green monkey. The protocol: (§1) The cytotoxicity of compounds 1–7 to Vero cells, an epithelial cell line derived from the kidney of an African green monkey, was tested using the 3-(4,5-dimethylthiazol-2-yl)-2,5-diphenyltetrazolium bromide (MTT) method. […] Based on CC20 values, which was the maximum concentration used for antiviral screening, 3b compound was the least toxic with a value of 527.2 µM. Compounds 2a and 2b were the most cytotoxic with values of 8.87 µM and 9.89 µM, respectively. […] The results from compounds 3a, 3b and 4a, 4b ranged from 40.69 to 527.20 µM. […] The presence of phthalimide group or sugar increases the values of CC20 and CC50 (Table 2 and Supplementary Material: Figure S1).
(§2) 96-well plates with 1 × 10^4 cell/well were used in this assay and prepared 24 h previously. The compounds were diluted in a 2:1 ratio so that a maximum of 0.8% DMSO was used. The concentrations used were 800, 400, 200, 100, 50, 25 and 12.5 µM. Dilutions were added to the wells in triplicate and incubated at 37 °C and 5% CO2 atmosphere. After 5 days, the wells were emptied and a 50 µL of 1 mg/mL MTT (3-(4,5-dimethylthiazol-2-yl)-2,5-diphenyltetrazolium bromide) (Sigma-Aldrich) solution was added, and the cells were incubated for 3–4 h for formation of formazan crystals through the mitochondria of viable cells. Then, medium was removed and 100 µL DMSO was added to the wells to solubilize the formazan crystals. With the aid of an incubator Tecnal TE-420 (Tecnal Equipamentos Científicos, Piracicaba, São Paulo, Brazil), the plates were homogenized at 120 RPM at 37 °C and the optical densities were read at 570 nm on a spectrophotometer BioTekTM ELx800TM (BioTek Instruments, Winooski, VT, USA).
(§3) The determination of the CC20 and CC50 values was obtained through the linear regression analysis of the XY graph generated by the values of the concentrations used in the test and the triplicate values of the viability. In the post-infection and pre-treatment tests, ANOVA and Dunnett tests were used, considering […] as the minimum significance value. All tests were performed in GraphPad Prism v.6.0 program (GraphPad Software, Inc., San Diego, CA, USA).
For orientation: Formazan colour is commonly taken as a measure of viable cells.

Data set [1] in a line: Cytotoxicity test with MTT method in Vero cells. The format is cell-based, African green monkey. Conditions: African green monkey, 5 days, read-out: CC50 (50% cytotoxic concentration). The protocol:
as §1, §2, §3

The next data set deals with ZIKV. The experiment in a line: Pre-treatment test to ZIKV in Vero cells. The data set is classed as cell-based, Zika virus. Conditions: 1 h pre-treatment at 136.90, 68.45, 34.22 and 17.11 µM, then ZIKV MOI 0.1, 5 days. The protocol: Since compound 4b was the only one in the series with activity against ZIKV, further experiments were conducted to elucidate its mechanism of action in cells that were pre-treated. To this, cells were pre-treated with varying concentrations of compound 4b, washed, and then infected with ZIKV. The concentrations used were chosen with the aim to preserve cellular viability and, thus, the maximum concentration was the previously determined CC20 value (136.90, 68.45, 34.22 and 17.11 µM).
Figure 5 Graphic result for compound 4b in the pre-treatment test to ZIKV. Vero cells in a 48-well cell plate were treated with 4b in different concentrations and after 1 h the supernatant was discarded. Cells were washed with PBS 1X, ZIKV MOI 0.1 was inoculated, and the plate was incubated again. After five days, the supernatant was collected and titrated by TCID50 method. The experiment was conducted in triplicates and values are the mean and the SD. […]
96-well plates with 1 × 10^4 cell/well were used in this assay and prepared 24 h previously. […] The reading was performed in an inverted optical microscope AE2000, Motic (Motic, Kowloon Bay, Hong Kong) counting positives wells by the presence of cytopathic effect and the determination of the sample title was performed with the aid of the Microsoft Office Excel program (Microsoft® Office, Redmond, WA, USA). […]

The structures appear in SMILES notation.

In the case of `O=C1C(Br)=C(NCc2cn(CN3C(=O)c4ccccc4C3=O)nn2)C(=O)c2ccccc21` [Compound 4b], the “CC20 (20% cytotoxic concentration)” value in the data set with Vero cells is listed as 136.90 µM. In data set [1], the CC50 at 5 days came out at 330 µM. The “change in virus titers vs negative control” value with ZIKV was “no significant change in virus titers”.
